Test [1] concerns ethanol-induced gastric lesions. The test can be described thus: Ethanol-induced gastric lesions in rats. It counts as in vivo. As to conditions: ethanol alone 41.9 ± 3.7. The method, then: (§1) Male Sprague-Dawley rats weighing 240 to 250 g were fasted for 24 hours and allowed free access to water prior to experiment. All test drugs were given intragastrically. Rats were pretreated with different doses of gabapentin at doses of 40 and 60 mg. Thirty minutes later indomethacin (25 mg/kg) was administered. Another group of rats received 10 mg of gabapentin twice, 3 hours apart, followed by indomethacin administration. Three hours after indomethacin treatment, the rats were killed and gastric lesions were assessed. The severity of the lesions were determined by the measurement of the square area (mm^2) of visible lesions.
To determine the effects of gabapentin on ethanol-induced gastric lesions, rats were pretreated with 1 mL of 70% ethanol, followed by gabapentin at a dose of 40 and 60 mg, respectively. Another group of rats were pretreated by 20 mg of gabapentin given twice, 3 hours apart, followed by ethanol administration. Thirty minutes later, all rats were killed and gastric lesions were assessed.

The test system of test [2] is gastric lesions caused by indomethacin. The test can be described thus: Indomethacin-induced gastric lesions in rats (gabapentin pretreatment). It counts as in vivo, Male Sprague-Dawley rats. As to conditions: for gastric lesion (square area of visible lesions): indomethacin alone 42.6 ± 5.2. The method, then: Gabapentin was evaluated in animals to determine its ability to prevent gastric lesions otherwise caused by indomethacin.
as §1

Structures are written as SMILES.

Regarding `NCC1(CC(=O)O)CCCCC1` [Gabapentin, 1-(aminomethyl)-cyclohexane acetic acid], the area of injury in test [1] (40 mg gabapentin, 1 mL of 70% ethanol) came out at 24.4 ± 3.5 mm^2; in test [1] (60 mg gabapentin, 1 mL of 70% ethanol) it was 18.7 ± 2.2 mm^2; in test [1] (2 doses of 20 mg gabapentin, 3 hours apart, then 1 mL of 70% ethanol, assessed 30 min later), 2.1 ± 0.3 mm^2. For the same compound, the “gastric lesion (square area of visible lesions)” value in test [2] (gabapentin 10 mg twice, 3 hours apart, followed by indomethacin 25 mg/kg) was 4.2 ± 0.39 mm^2; in test [2] (gabapentin 40 mg intragastrically 30 min before indomethacin 25 mg/kg, assessed 3 hours after indomethacin, mean ± SEM), 22.3 ± 2.8 mm^2; in test [2] (gabapentin 60 mg/kg (so in the source) intragastrically 30 min before indomethacin 25 mg/kg), 16.5 ± 2.2 mm^2. The gastric bleeding entry in test [2] (gabapentin pretreatment before indomethacin 25 mg/kg) is “dramatically reduced”.

(Values after patent publication EP0974351A2, “Medicament for preventing and treating gastrointestinal damage” (JOUVEINAL, priority 1998, dated 2000).)
